Like-named read-outs stand apart in the source and are kept apart here.
Columns and labels:
[1] = tested on: A. baumannii ATCC19606
Procedure, shortened: (§1)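 MTT added (20–30 min, room temperature); MIC read by eye as lowest concentration inhibiting visible growth (yellow). Polymyxin B positive control from 16 μg/mL.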

[2] = tested on: PA14 2P4 (pmrB)
Procedure, shortened: (§2)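 Using MTT as a visual viability dye, MICs were scored as the lowest concentration with no visible growth. Prior to staining, ~5 × 10^5 CFU per well grew in MH medium for ca. 18 h at 37 °C under static conditions.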

[3] = tested on: K. pneumoniae NCTC418
Procedure, shortened: as §1

[4] = tested on: E. coli W3110
Procedure, shortened: as §2

[5] = tested on: S. aureus COL (MRSA)
Procedure, shortened: as §2

[6] = tested on: E. cloacae
Procedure, shortened: as §2

[7] = tested on: P. aeruginosa PAO1
Procedure, shortened: as §2

[8] = tested on: ZEM9A (clinical MDR P. aeruginosa isolate)
Procedure, shortened: as §2

[9] = tested on: PA14 4.13 (phoQ)
Procedure, shortened: as §2

[10] = tested on: ZEM-1A (clinical MDR P. aeruginosa isolate)
Procedure, shortened: as §2

[11] = tested on: PA14 4.18 (pmrB)
Procedure, shortened: as §2

[12] = tested on: K. pneumoniae OXA-48
Procedure, shortened: as §2

[13] = tested on: HEK293 cells; assay: Cell viability assay by Alamar blue; conditions: read-out: Toxicity on HEK293 cells; CSV
Procedure, shortened: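 Cells kept at 37 °C in 5% CO2 with 10% FBS plus penicillin/streptomycin, in RPMI-1640 for A549 and high-glucose DMEM for HEK293, then assessed for viability by Alamar blue; values are mean ± SD of three.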

[14] = Circular dichroism, α-helical content; format: physicochemical; conditions: 0.1 mg/mL; for CD %α with 5 mM DPC: 10 mM phosphate buffer pH 7.4, 5 mM DPC; for CD %α with 20% TFE: 10 mM phosphate buffer pH 7.4, 20% TFE
[15] = diluted MH ([…] MH, pH 8.5) per Table 1 footnote b, 16–20 h at 37 °C
[16] = full MH, pH 7.4, 16–20 h at 37 °C

H-KKLLKLLKLLL-NH2 [ln65, reference compound]
MIC A. baumannii ATCC19606, […] MH at pH 7.4 ([1]; CSV, […] MH at pH 7.4): 4 ug/mL
MIC A. baumannii ATCC19606, […] MH at pH 8.5 ([1]; CSV, […] MH at pH 8.5): 2 ug/mL
MIC A. baumannii ATCC19606, full MH at pH 7.4 ([1]; CSV, full MH at pH 7.4): 3 ug/mL
MIC A. baumannii ATCC19606, full MH at pH 8.5 ([1]; CSV, full MH at pH 8.5): 8 ug/mL
MIC A. baumannii ATCC19606 […] 7.4 ([1]; Table S2, […] MH, pH 7.4): 4 µg/mL
MIC A. baumannii ATCC19606 […] 8.5 ([1]; Table S2, […] MH, pH 8.5): 2 µg/mL
MIC A. baumannii ATCC19606 Full MH 7.4 ([1]; Table S2, full MH, pH 7.4): 2 to 4 µg/mL
MIC A. baumannii ATCC19606 Full MH 8.5 ([1]; Table S2, full MH, pH 8.5): 8 µg/mL
MIC A. baumannii ATCC19606 […] [1, 15]: 4 µg/mL
MIC A. baumannii ATCC19606 Full [1, 16]: 2 to 4 µg/mL
MIC P. aeruginosa PA14 2P4, […] MH at pH 8.5 ([2]; CSV, […] MH at pH 8.5): 3 ug/mL
MIC P. aeruginosa PA14 2P4, full MH at pH 7.4 ([2]; CSV, full MH at pH 7.4): 32 ug/mL
MIC PA14 2P4 (pmrB) ([2]; MH pH 7.4, 16–20 h at 37 °C): 32 µg/mL
MIC P. aeruginosa PA14 2P4 ([2]; Table S3, […] MH at pH 8.5): 2 to 4 µg/mL
MIC K. pneumoniae NCTC418, […] MH at pH 7.4 ([3]; CSV, […] MH at pH 7.4): 3 ug/mL
MIC K. pneumoniae NCTC418, […] MH at pH 8.5 ([3]; CSV, […] MH at pH 8.5): 2 ug/mL
MIC K. pneumoniae NCTC418, full MH at pH 7.4 ([3]; CSV, full MH at pH 7.4): 4 ug/mL
MIC K. pneumoniae NCTC418, full MH at pH 8.5 ([3]; CSV, full MH at pH 8.5): 8 ug/mL
MIC K. pneumoniae NCTC418 […] 7.4 ([3]; Table S2, […] MH, pH 7.4): 2 to 4 µg/mL
MIC K. pneumoniae NCTC418 […] 8.5 ([3]; Table S2, […] MH, pH 8.5): 2 µg/mL
MIC K. pneumoniae NCTC418 Full MH 7.4 ([3]; Table S2, full MH, pH 7.4): 4 µg/mL
MIC K. pneumoniae NCTC418 Full MH 8.5 ([3]; Table S2, full MH, pH 8.5): 8 µg/mL
MIC K. pneumoniae NCTC418 […] [3, 15]: 2 to 4 µg/mL
MIC K. pneumoniae NCTC418 Full [3, 16]: 4 µg/mL
MIC E. coli W3110, […] MH at pH 7.4 ([4]; CSV, […] MH at pH 7.4): 2 ug/mL
MIC E. coli W3110, […] MH at pH 8.5 ([4]; CSV, […] MH at pH 8.5): 2 ug/mL
MIC E. coli W3110, full MH at pH 7.4 ([4]; CSV, full MH at pH 7.4): 4 ug/mL
MIC E. coli W3110 […] 7.4 ([4]; Table S2, […] MH, pH 7.4): 2 µg/mL
MIC E. coli W3110 […] 8.5 ([4]; Table S2, […] MH, pH 8.5): 2 µg/mL
MIC E. coli W3110 Full MH 7.4 ([4]; Table S2, full MH, pH 7.4): 4 µg/mL
MIC E. coli W3110 Full MH 8.5 ([4]; Table S2, full MH, pH 8.5): 8 µg/mL
MIC S. aureus COL (MRSA), […] MH at pH 7.4 ([5]; CSV, […] MH at pH 7.4): 2 ug/mL
MIC S. aureus COL (MRSA), […] MH at pH 8.5 ([5]; CSV, […] MH at pH 8.5): 2 ug/mL
MIC S. aureus COL (MRSA), full MH at pH 7.4 ([5]; CSV, full MH at pH 7.4): 4 ug/mL
MIC S. aureus COL (MRSA), full MH at pH 8.5 ([5]; CSV, full MH at pH 8.5): 8 ug/mL
MIC S. aureus COL (MRSA) […] 7.4 ([5]; Table S2, […] MH, pH 7.4): 2 µg/mL
MIC S. aureus COL (MRSA) […] 8.5 ([5]; Table S2, […] MH, pH 8.5): 2 µg/mL
MIC S. aureus COL (MRSA) Full MH 7.4 ([5]; Table S2, full MH, pH 7.4): 4 µg/mL
MIC S. aureus COL (MRSA) Full MH 8.5 ([5]; Table S2, full MH, pH 8.5): 8 µg/mL
MIC S. aureus COL (MRSA) […] [5, 15]: 2 µg/mL
MIC S. aureus COL (MRSA) Full [5, 16]: 4 µg/mL
MIC E. cloacae, […] MH at pH 8.5 ([6]; CSV, […] MH at pH 8.5): 4 ug/mL
MIC E. cloacae, full MH at pH 7.4 ([6]; CSV, full MH at pH 7.4): 2 ug/mL
MIC E. cloacae ([6]; MH pH 7.4, 16–20 h at 37 °C): 2 µg/mL
MIC E. cloacae ([6]; Table S3, […] MH at pH 8.5): 4 µg/mL
MIC P. aeruginosa PAO1, […] MH at pH 7.4 ([7]; CSV, […] MH at pH 7.4): 4 ug/mL
MIC P. aeruginosa PAO1, […] MH at pH 8.5 ([7]; CSV, […] MH at pH 8.5): 4 ug/mL
MIC P. aeruginosa PAO1, full MH at pH 7.4 ([7]; CSV, full MH at pH 7.4): 3 ug/mL
MIC P. aeruginosa PAO1, full MH at pH 8.5 ([7]; CSV, full MH at pH 8.5): 16 ug/mL
MIC P. aeruginosa PAO1 […] 7.4 ([7]; Table S2, […] MH, pH 7.4): 4 µg/mL
MIC P. aeruginosa PAO1 […] 8.5 ([7]; Table S2, […] MH, pH 8.5): 4 µg/mL
MIC P. aeruginosa PAO1 Full MH 7.4 ([7]; Table S2, full MH, pH 7.4): 2 to 4 µg/mL
MIC P. aeruginosa PAO1 Full MH 8.5 ([7]; Table S2, full MH, pH 8.5): 16 µg/mL
MIC P. aeruginosa PAO1 […] [7, 15]: 4 µg/mL
MIC P. aeruginosa PAO1 Full [7, 16]: 2 to 4 µg/mL
MIC P. aeruginosa ZEM9A, […] MH at pH 8.5 ([8]; CSV, […] MH at pH 8.5): 4 ug/mL
MIC P. aeruginosa ZEM9A, full MH at pH 7.4 ([8]; CSV, full MH at pH 7.4): 4 ug/mL
MIC P. aeruginosa ZEM9A ([8]; Table S3, […] MH at pH 8.5): 4 µg/mL
MIC P. aeruginosa PA14 4.13, […] MH at pH 8.5 ([9]; CSV, […] MH at pH 8.5): 2 ug/mL
MIC P. aeruginosa PA14 4.13, full MH at pH 7.4 ([9]; CSV, full MH at pH 7.4): 4 ug/mL
MIC PA14 4.13 (phoQ) ([9]; MH pH 7.4, 16–20 h at 37 °C): 4 µg/mL
MIC P. aeruginosa PA14 4.13 ([9]; Table S3, […] MH at pH 8.5): 2 µg/mL
MIC P. aeruginosa ZEM-1A, […] MH at pH 8.5 ([10]; CSV, […] MH at pH 8.5): 4 ug/mL
MIC P. aeruginosa ZEM-1A, full MH at pH 7.4 ([10]; CSV, full MH at pH 7.4): 2 ug/mL
MIC ZEM-1A ([10]; MH pH 7.4, 16–20 h at 37 °C): 2 µg/mL
MIC P. aeruginosa ZEM-1A ([10]; Table S3, […] MH at pH 8.5): 4 µg/mL
MIC P. aeruginosa PA14 4.18, […] MH at pH 8.5 ([11]; CSV, […] MH at pH 8.5): 3 ug/mL
MIC P. aeruginosa PA14 4.18, full MH at pH 7.4 ([11]; CSV, full MH at pH 7.4): 32 ug/mL
MIC PA14 4.18 (pmrB) ([11]; MH pH 7.4, 16–20 h at 37 °C): 32 µg/mL
MIC P. aeruginosa PA14 4.18 ([11]; Table S3, […] MH at pH 8.5): 2 to 4 µg/mL
MIC K. pneumoniae OXA-48, […] MH at pH 8.5 ([12]; CSV, […] MH at pH 8.5): 4 ug/mL
MIC K. pneumoniae OXA-48, full MH at pH 7.4 ([12]; CSV, full MH at pH 7.4): 2 ug/mL
MIC K. pneumoniae OXA-48 ([12]; MH pH 7.4, 16–20 h at 37 °C): 2 µg/mL
MIC K. pneumoniae OXA-48 ([12]; Table S3, […] MH at pH 8.5): 4 µg/mL
IC50 [13]: 27 ± 6 µM
CD %α with 5 mM DPC ([14]; DichroWeb, Contin-LL): 73%
CD %α with 20% TFE ([14]; DichroWeb, Contin-LL): 64%
CD %α with 5 mM DPC ([14]; Table S2): 73%
CD %α with 20% TFE ([14]; Table S2): 64%

— paper PMC10714400, “Antimicrobial Peptide–Peptoid Hybrids with and without Membrane Disruption” (ACS Infectious Diseases, 2023)
